According to ChEMBL document CHEMBL1201862, “PubChem BioAssay data set” (2004):
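Cultured in 96-well plates, cells were exposed to test compound for 48 hours across five concentrations. GI50: concentration for 50% inhibition of growth.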 Activity calls are given as the source filed them. Cut-off read from the data, not from the text of the source: active = GI50 up to about 1.1 µM and inactive = higher.

Legend:
Test in all cases: NCI tumour cell line growth inhibition, 48 h
M14 = test system: M14
SK-MEL-5 = test system: SK-MEL-5
SNB-75 = test system: SNB-75
SK-OV-3 = test system: SK-OV-3
HT-29 = test system: HT-29
CCRF-CEM = test system: CCRF-CEM
MOLT-4 = test system: MOLT-4
UACC-62 = test system: UACC-62
SF-295 = test system: SF-295
DLD-1 = test system: DLD-1
OVCAR-3 = test system: OVCAR-3
TK-10 = test system: TK-10
NCI-H522 = test system: NCI-H522
RXF 393 = test system: RXF 393
SNB-78 = test system: SNB-78
RPMI-8226 = test system: RPMI-8226
PC-3 = test system: PC-3
MDA-MB-231 = test system: MDA-MB-231
Hs-578T = test system: Hs-578T
MDA-N = test system: MDA-N

Structure (SMILES)	GI50 (M14)	GI50 (SK-MEL-5)	GI50 (SNB-75)	GI50 (SK-OV-3)	GI50 (HT-29)	GI50 (CCRF-CEM)	GI50 (MOLT-4)	GI50 (UACC-62)	GI50 (SF-295)	GI50 (DLD-1)	GI50 (OVCAR-3)	GI50 (TK-10)	GI50 (NCI-H522)	GI50 (RXF 393)	GI50 (SNB-78)	GI50 (RPMI-8226)	GI50 (PC-3)	GI50 (MDA-MB-231)	GI50 (Hs-578T)	GI50 (MDA-N)
CCC(CC)NC1=C(NC(C)=O)C(=O)c2ccccc2C1=O	> 50 µM (inactive)	> 50 µM (inactive)	> 50 µM (inactive)	> 50 µM (inactive)	> 50 µM (inactive)	> 50 µM (inactive)	> 50 µM (inactive)	> 50 µM (inactive)	> 50 µM (inactive)	> 50 µM (inactive)	> 50 µM (inactive)	> 50 µM (inactive)	> 50 µM (inactive)	> 50 µM (inactive)	> 50 µM (inactive)	–	–	–	–	–
C=CC1(C)CCC(C(C)C(=O)C(C=C(C)C)OC(C)=O)C12C(=O)Oc1ccccc1C2=O (centres undefined)	54.2 µM (inactive)	–	52.5 µM (inactive)	82.2 µM (inactive)	35.3 µM (inactive)	27 µM (inactive)	26.2 µM (inactive)	49 µM (inactive)	47.9 µM (inactive)	54.5 µM (inactive)	38.9 µM (inactive)	> 100 µM (inactive)	31.6 µM (inactive)	26.7 µM (inactive)	79.4 µM (inactive)	23.7 µM (inactive)	–	–	–	–
CCc1c(-c2coc(CC/C(C)=C/c3ccccc3)n2)oc(OC)c(C)c1=O	34.8 µM (inactive)	4.12 µM (inactive)	49.4 µM (inactive)	32.7 µM (inactive)	24.8 µM (inactive)	14.9 µM (inactive)	10.9 µM (inactive)	17.6 µM (inactive)	1.77 µM (inactive)	26.8 µM (inactive)	45.2 µM (inactive)	> 100 µM (inactive)	0.209 µM (active)	–	53.3 µM (inactive)	11.7 µM (inactive)	–	–	–	–
CCC1(CN(C)C)CC/C(=C\c2ccc3c(c2)OCO3)C1=O (centres undefined)	> 100 µM (inactive)	62.5 µM (inactive)	> 100 µM (inactive)	–	65.2 µM (inactive)	48.6 µM (inactive)	> 100 µM (inactive)	> 100 µM (inactive)	> 100 µM (inactive)	82.2 µM (inactive)	> 100 µM (inactive)	> 100 µM (inactive)	49.9 µM (inactive)	> 100 µM (inactive)	> 100 µM (inactive)	40.7 µM (inactive)	–	–	–	–
COC(=O)C1=C(C)N(NC(=O)Nc2ccccc2)C2(N)N(NC(=O)Nc3ccccc3)C(C)=C(C(=O)OC)C12C(=O)OC (centres undefined)	47.5 µM (inactive)	–	36.1 µM (inactive)	> 100 µM (inactive)	65.2 µM (inactive)	35.2 µM (inactive)	27.1 µM (inactive)	41.3 µM (inactive)	–	55.7 µM (inactive)	54.2 µM (inactive)	69.3 µM (inactive)	32.3 µM (inactive)	75.9 µM (inactive)	26.1 µM (inactive)	26.8 µM (inactive)	–	–	–	–
Oc1nc(CC(O)c2ccc(Cl)c(Cl)c2)cc(-c2ccccc2)n1 (centres undefined)	91 µM (inactive)	37.8 µM (inactive)	33 µM (inactive)	43.6 µM (inactive)	40.5 µM (inactive)	30.1 µM (inactive)	75.3 µM (inactive)	45.5 µM (inactive)	53.7 µM (inactive)	> 100 µM (inactive)	48.8 µM (inactive)	24.8 µM (inactive)	22.6 µM (inactive)	41.1 µM (inactive)	–	–	–	–	–	–
COC(=O)C1[C@@H](C(=O)OC)C12C=Cc1ccccc1C=C2 (some centres undefined)	> 100 µM (inactive)	> 100 µM (inactive)	–	> 100 µM (inactive)	–	> 100 µM (inactive)	> 100 µM (inactive)	> 100 µM (inactive)	> 100 µM (inactive)	> 100 µM (inactive)	> 100 µM (inactive)	> 100 µM (inactive)	> 100 µM (inactive)	> 100 µM (inactive)	> 100 µM (inactive)	> 100 µM (inactive)	–	–	–	–
CC1C=C[C@H](Sc2ccccc2)CC[C@@]1(C)O (some centres undefined)	> 100 µM (inactive)	59.4 µM (inactive)	97.1 µM (inactive)	> 100 µM (inactive)	> 100 µM (inactive)	34.7 µM (inactive)	35.1 µM (inactive)	86.1 µM (inactive)	–	> 100 µM (inactive)	–	> 100 µM (inactive)	–	76.2 µM (inactive)	> 100 µM (inactive)	57.3 µM (inactive)	–	–	–	–
CC(=O)O[C@]12CCCCC1C1(O)C(O)CCCC[C@H]12 (some centres undefined)	> 100 µM (inactive)	> 100 µM (inactive)	29.6 µM (inactive)	> 100 µM (inactive)	> 100 µM (inactive)	> 100 µM (inactive)	> 100 µM (inactive)	> 100 µM (inactive)	> 100 µM (inactive)	–	–	> 100 µM (inactive)	> 100 µM (inactive)	> 100 µM (inactive)	> 100 µM (inactive)	> 100 µM (inactive)	–	–	–	–
NC(CCCC(N)P(=O)(O)c1ccccc1)P(=O)(O)c1ccccc1 (centres undefined)	> 261 µM (inactive)	–	> 261 µM (inactive)	> 261 µM (inactive)	> 261 µM (inactive)	> 261 µM (inactive)	> 261 µM (inactive)	> 261 µM (inactive)	> 261 µM (inactive)	> 261 µM (inactive)	> 261 µM (inactive)	> 261 µM (inactive)	> 261 µM (inactive)	> 261 µM (inactive)	> 261 µM (inactive)	> 261 µM (inactive)	–	–	–	–
Cc1ccc(S(=O)(=O)NC2(C=O)CCCC3CCCCC32)cc1 (centres undefined)	> 100 µM (inactive)	> 100 µM (inactive)	> 100 µM (inactive)	> 100 µM (inactive)	–	> 100 µM (inactive)	> 100 µM (inactive)	> 100 µM (inactive)	–	> 100 µM (inactive)	> 100 µM (inactive)	> 100 µM (inactive)	> 100 µM (inactive)	> 100 µM (inactive)	> 100 µM (inactive)	> 100 µM (inactive)	–	–	–	–
CC1OC(=O)C(O)=C1O (centres undefined)	> 100 µM (inactive)	> 100 µM (inactive)	> 100 µM (inactive)	> 100 µM (inactive)	> 100 µM (inactive)	> 100 µM (inactive)	> 100 µM (inactive)	> 100 µM (inactive)	> 100 µM (inactive)	–	> 100 µM (inactive)	> 100 µM (inactive)	> 100 µM (inactive)	> 100 µM (inactive)	> 100 µM (inactive)	> 100 µM (inactive)	–	–	–	–
Cc1ccc(C2[C@H]3C(=O)N(c4ccc(Cc5ccc(N6C(=O)[C@@H]7ON(c8ccccc8)C(c8ccc(C)cc8)[C@@H]7C6=O)cc5)cc4)C(=O)[C@H]3ON2c2ccccc2)cc1 (some centres undefined)	91.6 µM (inactive)	> 100 µM (inactive)	99.8 µM (inactive)	> 100 µM (inactive)	> 100 µM (inactive)	> 100 µM (inactive)	> 100 µM (inactive)	> 100 µM (inactive)	> 100 µM (inactive)	> 100 µM (inactive)	> 100 µM (inactive)	–	–	> 100 µM (inactive)	–	> 100 µM (inactive)	–	–	–	–
CCOC(=O)/C(=C/c1ccc(N(C)C)cc1)N(CC)CC	> 100 µM (inactive)	> 10 µM (inactive)	–	> 100 µM (inactive)	–	27 µM (inactive)	32.2 µM (inactive)	74.5 µM (inactive)	> 100 µM (inactive)	–	24.5 µM (inactive)	> 100 µM (inactive)	34.3 µM (inactive)	–	69.3 µM (inactive)	26.1 µM (inactive)	–	–	–	–
C=C(Br)CN(CC(=C)Br)C(C)=O	> 100 µM (inactive)	> 100 µM (inactive)	> 100 µM (inactive)	> 100 µM (inactive)	> 100 µM (inactive)	> 100 µM (inactive)	> 100 µM (inactive)	> 100 µM (inactive)	> 100 µM (inactive)	–	> 100 µM (inactive)	> 100 µM (inactive)	> 100 µM (inactive)	> 100 µM (inactive)	–	> 100 µM (inactive)	81.8 µM (inactive)	> 100 µM (inactive)	> 100 µM (inactive)	> 100 µM (inactive)
C=CCCC(C)N(C(=O)OC(C)(C)C)S(=O)(=O)c1ccc(C)cc1 (centres undefined)	> 100 µM (inactive)	–	> 100 µM (inactive)	> 100 µM (inactive)	> 100 µM (inactive)	–	97.1 µM (inactive)	77.4 µM (inactive)	> 100 µM (inactive)	> 100 µM (inactive)	> 100 µM (inactive)	> 100 µM (inactive)	> 100 µM (inactive)	–	> 100 µM (inactive)	> 100 µM (inactive)	–	–	–	–
CC(=O)Nc1ccc(C2C(C(=O)Nc3ccccc3C)=C(C)NC(C)=C2C(=O)Nc2ccccc2C)cc1	> 100 µM (inactive)	> 100 µM (inactive)	> 61.2 µM (inactive)	> 100 µM (inactive)	> 100 µM (inactive)	> 100 µM (inactive)	–	> 92.3 µM (inactive)	> 100 µM (inactive)	> 100 µM (inactive)	> 100 µM (inactive)	> 100 µM (inactive)	> 100 µM (inactive)	> 100 µM (inactive)	> 100 µM (inactive)	> 100 µM (inactive)	–	–	–	–
COC(=O)C1C(=O)O[C@@H](c2ccc(OC)cc2OC)C1C(=O)OC (some centres undefined)	> 100 µM (inactive)	> 100 µM (inactive)	> 100 µM (inactive)	> 100 µM (inactive)	> 100 µM (inactive)	> 100 µM (inactive)	> 100 µM (inactive)	> 100 µM (inactive)	> 100 µM (inactive)	> 100 µM (inactive)	> 100 µM (inactive)	> 100 µM (inactive)	–	> 100 µM (inactive)	> 100 µM (inactive)	> 100 µM (inactive)	–	–	–	–
